# Source: patent US20100068297A1, “Antimicrobial Composition” (NATURE THERAPEUTICS LIMITED, priority 2006, published 2010)
# “And” between values parts separate entries of the source, which are not always exact repeats. Identical values can stand only once.
# What was measured:
# Prot. mirabilis = assay: Tea extracts with metal salts, suspension assay 30 min; format: cell-based, Proteus mirabilis; conditions: Lambda buffer control
# Experimental: (§1) Tea infusions were prepared as previously with boiling sterilized distilled water. After 10 minutes, the extracts are removed from the beaker into sterilized universal tubes. The pH of these extracts was neutralized using a 1 M NaOH solution. The extracts are refrigerated, used within 4 days and without further treatment. Overnight cultures of the Gram-positive strain (Staph. aureus) and the Gram-negative strains (Ps. aeruginosa and Prot. mirabilis) were suspended in Ringers solution to a turbidity equivalent to 0.5 McFarland (1.5×10^8 CFU/ml). Metal salts were added to the optimum tea extracts immediately before the assay was conducted. […] The appropriate bacterial dilution was prepared and 50 μl of that was placed in a sterile Eppendorf micro-centrifuge tube with a 100 μl of the extract/metal salt solution. […] Serial dilutions were prepared in Ringer's solution, 10 μL aliquots of each dilution were spotted onto nutrient agar plates and incubated aerobically for 24 hours at 37° C. Each assay was conducted in triplicate.
# Pseudomonas aeruginosa = assay: In vitro bactericidal assay, control strain; format: cell-based; conditions: metal ion added to PRE
# Experimental: The control strain was Pseudomonas aeruginosa for standard experimentation, ie determining optimal preparations.
# Growth conditions: on nutrient agar provided by Oxoid Ltd for 24 hrs at 37° C.
# The inventor established a functional in vitro bactericidal assay to screen a variety of formulations (cream, aqueous and ointment). This assay involved adding 0.5 g of ointment to 10 ml of water and vortexing prior to a standard suspension test using 50 microlitres of bacterial cell suspension to a turbidity of 0.5 McFarland solution (bacterial cell suspension equal to 1.5×10^8) plus 100 microlitres of the ointment solution. After incubation in the dark at room temperature for 30 mins, serial dilutions (from 10^−1 to 10^−5) were carried out on nutrient agar.
# In terms of mechanisms of action, the preference for using metal ions in the reduced state led to the incorporation of studies using reductants to stabilize this oxidation state, and prolong and enhance activity. Thus, the reductant Vitamin C was added in three different doses after pre-incubating the PRE/metal ions mixtures for 30 minutes, and the results are shown in FIG. 2.
# The longer term activities of the PRE:metal salt(s) mixtures were investigated after a period of 24 and 48 hours, and the results are shown in FIG. 4. […] The results shown are for one system only as an example.
# Staph. aureus = assay: Tea extracts with metal salts, suspension assay 30 min; format: cell-based, Staphylococcus aureus; conditions: Lambda buffer control
# Experimental: as §1
# Ps. aeruginosa = assay: as above; format: cell-based, Pseudomonas aeruginosa; conditions: Lambda buffer control
# Experimental: as §1
# [1] = tested on: ESβL Pseudomonas aeruginosa clinical isolates; assay: Suspension test, aqueous preparations, 30 minutes; format: cell-based; conditions: no Vitamin C, nine isolates, listed as Cu(II)
# Experimental: P. aeruginosa isolates were removed from the freezer and first passaged on nutrient agar twice before use. Overnight cultures on nutrient agar were then suspended in Ringer's solution (Oxoid, U.K.) to a turbidity equivalent to 0.5 McFarland (1.5×10^8 CFU/ml).
# The appropriate bacterial dilution was prepared and 50 μl placed in a sterile Eppendorf micro-centrifuge tube with a 100 μl of the extract/metal salt solution. After exposure of the bacteria for 30 minutes at room temperature, the activity of the bactericidal agent was neutralized by adding an equal volume of 2% (v/v) Tween-80 (Sigma Chemical Co., UK) in Lambda buffer (Stewart et al. 1998). Serial dilutions were prepared in Ringer's solution (10^−5), 10 μl of each dilution is spotted on nutrient agar plate and incubated for 24 hours at 37° C. Each assay was conducted in triplicate.
# The assay was carried out as described above with the following addition: Vitamin C was added to the metal ion solution immediately prior to mixing with the PRE. Aliquots of Vitamin C were made to give final metal ion:Vitamin C ratios (and Vitamin C concentrations) of 1:1 (4.8 mM), 1:5 (24 nM), 1:20 (96 mM) (metal salt:Vitamin C). 700 μl of this solution was then added to PRE.
# PVL positive cMRSA = assay: Suspension test, 2 hours, clinical isolates; format: cell-based, Staphylococcus aureus; conditions: 2 hours exposure, 10 clinical isolates
# Experimental: Clinical isolates of methicillin resistant (n=10), methicillin sensitive (n=10) Staphylococcus aureus (MRSA and MSSA) and Panton-Valentine Leukocidin producing cMRSA (n=10) were used in the study. The MRSA and MSSA isolates were collected from the Royal Marsden Hospital (London, UK) and the cMRSA isolates were collected from the Devon and Exeter Hospital (UK). The isolates were cultured over night on nutrient agar (Oxoid), aerobically at 37° C. and then frozen in cyrovials (Pro-labs) at −80° C. until required. Prior to use all isolates were passaged twice on nutrient agar aerobically at 37° C. In all assays culture were prepared by using overnight cultures on nutrient agar that were then suspended in Ringer's solution (Pro-Lab, U.K.) to a turbidity equivalent to 0.5 McFarland (1.5×10^8 cfu ml^−1).
# Briefly, overnight cultures on nutrient agar were then suspended in Ringer's solution (Oxoid, U.K.) to a turbidity equivalent to 0.5 McFarland (1.5×10^8 CFU/ml).
# The appropriate bacterial dilution was prepared and 50 μL it placed in a sterile Eppendorf micro-centrifuge tube with a 100 μL of the extract/metal salt solution. Following treatment of the bacteria for 2 hours at room temperature, the activity of the bactericidal agent was neutralized by adding an equal volume of 2% (v/v) Tween-80 (Sigma Chemical Co., UK) in Lambda buffer. […]
# E. coli = assay: Suspension assay, 30 minutes exposure, viable count; format: cell-based; conditions: no Vitamin C
# Experimental: All reagents were purchased from Sigma-Aldrich (Poole, Dorset) and distilled water was used throughout. Overnight cultures on nutrient agar were then suspended in Ringer's solution (Oxoid, U.K.) to a turbidity equivalent to 0.5 McFarland (1.5×10^8 CFU/ml). […] The final solution was protected from light (Stewart et al. 1998. J. Appl Microbiol 84:777-783). The appropriate bacterial dilution was prepared and 50 μl placed in a sterile Eppendorf micro-centrifuge tube with a 100 μl of the extract/metal salt solution. […] Serial dilutions were prepared in Ringer's solution (10^−5), 10 μl of each dilution is spotted on nutrient agar plate and incubated for 24 hours at 37° C. Each assay was conducted in triplicate. The assay was carried out as described above with the following addition: […]
# MRSA = assay: Micro-dilution MIC, alone and in combination; format: cell-based, Staphylococcus aureus; conditions: each table line is a group of isolates; 24 h
# Experimental: The plates were prepared as follows, 50 μl of four-times strength Iso-Sensitest broth was added to the first row of wells and 50 μl of double strength Iso-Sensitest broth was added to all remaining wells. To the first row of wells 50 μl of the PRE was added and mixed, 50 μl of broth from row A was transferred to row B and mixed, this process was continued to row E Finally, 50 μl of broth was removed from well F and discarded. Then the overnight cultures were suspended in Ringers solution to a turbidly of 0.5 McFarland (1.5×10^8 cfu/ml). 50 μl of suspension were added to well A (final concentration of PRE in well A=200 mg/ml) through to G All samples were carried out in Triplicate. All plates were incubated at 37° C. for 24 hours. After incubation 10 μl of broth from each well was spotted onto nutrient agar and incubated at 37° C. for 24 hours. After incubation the plates were examined to determine breakpoints by the presence or absence of growth.
SMILES,"bactericidal efficacy, reduction in CFU/mL (factor) (Prot. mirabilis)",activity of the metal ion solution upon addition to PRE (Pseudomonas aeruginosa),"bactericidal efficacy, reduction in CFU/mL (factor) (Staph. aureus)","bactericidal efficacy, reduction in CFU/mL (factor) (Ps. aeruginosa)",reduction in growth (mean values) [1],isolates in which the 10^3 log reduction in growth was observed (PVL positive cMRSA) [%],reduction in growth (PVL positive cMRSA),"reduction of surviving population / growth, factor compared to the buffer (E. coli)","MIC, agent alone (MRSA)"
"O=S(=O)([O-])[O-].[Fe+2] [FeSO4, iron (II) sulfate]",10^3,highest activities,poor efficacy,10^3,–,–,–,–,–
O=S(=O)([O-])[O-].[Zn+2] [ZnSO4],–,little or no activity,–,–,–,–,–,–,–
"O=S(=O)([O-])[O-].[Cu+2] [CuSO4, copper (II) sulfate]",10^2,highest activities,10^4,10^2,~10^1 log10 and ~10^2 log10,60,10^3 log10,10^4,3125 µg/mL and 1563 µg/mL
O=S(=O)([O-])[O-].[Mn+2] [MnSO4],minimal,little or no activity,poor efficacy,minimal,–,–,–,–,–
